This is an account of results in patent US20220362165A1, “TETRABENAZINE TRANSDERMAL DELIVERY DEVICE” (SHINKEI THERAPEUTICS LLC, priority 2019, published 2022).

The nature of this series: clinical. The following applies: male, human, in vivo.

Protocol: This was an open-label, randomized, two-treatment, two-period, two-sequence, crossover study under fasted conditions comparing the test and reference products. The study was conducted with 16 healthy, non-tobacco-, non-nicotine-using, adult male subjects. In one period of the study, one (1) TBZ patch, 8 mg/96 hr was applied to the subject's upper outer left arm and kept in place for 96 hours following an overnight fast of at least 10 hours. In the other study period, 1×12.5 mg Tetrabenazine Tablet (Lupin) was administered every 8 hours from Day 1 through Day 4 for a total daily dose of 37.5 mg and a total dose of 150 mg for the 12 doses over the 4 days. […]
Blood samples were collected pre-dose and at intervals over 120 hours after dosing (0-hour) with the study drug in each study period. Samples were analyzed by the bioanalytical laboratory for those subjects who were dosed with at least one of the study products (Treatment A or B).
The plasma concentrations of TBZ (RR and SS isomers) and its active metabolites (RRR, SSS, SRR and RSS) were measured by a fully validated analytical procedure. […]
The plasma concentrations of TBZ (RR and SS isomers) and its HTBZ metabolites (RRR, SSS, SRR and RSS) were measured by a fully validated analytical procedure for those subjects who were dosed with at least one of the study products (Treatment A or B).

The half-life is the time in which the quantity being followed falls by half. Low readings indicate fast loss, high ones slow loss. In turn, `COc1cc2c(cc1OC)[C@H]1CC(=O)[C@H](CC(C)C)CN1CC2` [R,R-tetrabenazine, (3R,11bR)-1,3,4,6,7,11b-Hexahydro-9,10-dimethoxy-3-(2-methylpropyl)-2H-benzo[a]quinolizin-2-one] had a half-life of approximately 8.5 h.
